# From EPA's ToxValDB 9.5 (doi:10.2903/j.efsa.2006.64r)
# Assays:
# Oncorhynchus mykiss = settings: mortality
# Beta vulgaris = settings: not reported; seedling emergence
# Bibionidae = settings: chronic/long-term; duration: 28 days; seedling emergence
# Typhlodromus pyri = settings: acute; duration: 7 days; mortality
# Daphnia magna = settings: chronic/long-term; duration: 21 days; reproduction
# Apis mellifera = settings: acute, mortality
# Mus musculus = settings: acute; oral; mortality
# Oryctolagus sp. = settings: developmental; development
smiles,measurement,setting,value
CC1(C)CCC(Cc2ccc(Cl)cc2)C1(O)Cn1cncn1 (stereo not given) [Metconazole],LC50,"Oncorhynchus mykiss; acute, duration: 72 hours",2.1 µg/mL
same,NOEC,"Oncorhynchus mykiss; chronic/long-term, duration: 95 days",0.00291 mg/L
same,NOEC,Beta vulgaris,96 g/ha
same,NOEC,Bibionidae,2.12 mg/L
same,LEL,Typhlodromus pyri,180 g/ha
same,NOEC,Daphnia magna,0.16 mg/L
same,LD50,"Apis mellifera; duration: 72 hours, oral, unspecified",> 85 µg/piece
same,LD50,"Apis mellifera; duration: 96 hours, dermal",> 100 µg/piece
same,LD50,"Bird; acute, oral, unspecified, mortality",787 mg/kg
same,NOEC,"Bird; reproductive, duration: 22 weeks",6.19 mg/kg-day
same,LC50,"Bird; short-term, oral, feed, mortality",168 mg/kg-day
same,LD50,Mus musculus,410 mg/kg
same,NOAEL,Oryctolagus sp.,4 mg/kg-day
same,LC50,"Tagia sp.; acute, duration: 14 days, mortality",> 1000 mg/kg
same,NOEC,"Tagia sp.; chronic/long-term, reproduction",1.8 mg/kg
